Reference: patent publication US11896650B2, “Enhancing chemotherapy in medulloblastoma and glioblastoma with high basal p53 levels” (GEORGETOWN UNIVERSITY, priority 2018, dated 2024)

Tests used:
Assay type in all cases: cell-based
p110 = assay: Cell viability of cells overexpressing p110 with added mTOR/AKT signaling inhibitor
Experimental: FIGS. 3A, 3B, 3C, 3D, and 3E show the effects of over expression of p110-caax on D556 and D283 cell survival. D556 cells were transformed with p110 or control plasmid, and Western blots for p110 and β-actin were run (FIG. 3A). The effects of overexpression of p110 on cell viability were determined via Trypan blue assay on D283 cells (FIG. 3B, upper right panel) and D556 cells (FIG. 3C, lower left panel) showing Trypan blue assay results; lower middle panel showing). Cell viability for D556 cells was also measured by propidium iodide (PI) staining and measured by flow cytometry (FIG. 3D, lower middle panel)). Reversal of chemosensitivity induced by p110 overexpression is shown when an inhibitor of mTOR/AKT signaling (Rad001/Everolimus) is added (FIG. 3E)
D556 cells were transformed with p110 or control plasmid and Western blots for p110 and β-actin were run (FIG. 3A). The effects of overexpression of p110 on cell viability were determined via Trypan blue assay on D283 cells (FIG. 3B) and D556 cells (FIG. 3C). Cell viability for D556 cells was also measured by propidium iodide (PI) staining and measured by flow cytometry (FIG. 3D).

pmTOR in D556 cells = assay: Western blot for pmTOR in D556 cells infected with p53 shRNA or control pLKO lentivirus
Experimental: D556 cells were infected with either p53 shRNA or control pLKO lentivirus and Western blotting was performed to show the effect of p53 inhibition on pmTOR.

D556 cells [1] = assay: Cell survival of D556 cells after p53 knockdown and drug treatment; conditions: 18 hours treatment
Experimental: (§1) Comparative sensitivities of D556 cells treated with cisplatin (FIG. 6B) or vincristine (FIG. 6C) were tested at the concentrations shown and in the presence or absence of thymosin β-4 (5 nM). * p<0.05, N>3 separate experiments.
(§2) For chemosensitivity testing, the effects of p53 knockdown on cell survival of D556 cells treated with doxorubicin (dox), vincristine (vinc) and cisplatin (csp) was further assessed.

[2] = system: Akt, PP2A (α and c subunit), PARP and RIP1 in D556 cells; assay: Western blot of D556 cells after Tβ-4 treatment
Experimental: FIGS. 5A, 5B, 5C and 5D are Western blots showing that Tβ-4 treatment of D556 cells induces expression of Akt, PP2A (α and c subunits), PARP, and RIP1.
To further assess the mechanism of effect of Tβ-4 treatment of D556 cells, Western blot were performed.

D283 cells = assay: Cell viability of D283 cells treated with chemotherapeutic agents with or without Tβ-4 (propidium iodide staining, flow cytometry)
Experimental: (§3) FIGS. 4A, 4B, and 4C show the effects of thymosin beta-4 (Tβ-4) on D556 and D283 cell survival. For cell viability assays, D556 cells (FIG. 4A) and D283 cells (FIG. 4B) were treated with DMSO, doxorubicin, or VMY in the presence or absence of Tβ-4, and cell viability as measured using propidium iodide (PI) staining with flow cytometry. Control cells were untreated. […] GADPH expression was used as a control.
(§4) The effect of Tβ-4 was evaluated using a cell viability assay for D556 and D283 cells. D556 and D283 cells were treated with 5 nM Tβ-4 and either doxorubicin or VMY. Viability of D556 cells (FIG. 4A) and of D283 cells (FIG. 4B) was measured using propidium iodide (PI) staining with flow cytometry. A dose response curve was performed for D556 cells treated with vincristine alone or vincristine plus Tβ-4 using a cellular proliferation assay kit wst-1 (FIG. 4C).

D556 cells [3] = assay: Chemosensitivity testing of D556 cells with cisplatin or vincristine in presence or absence of Tβ-4; conditions: Tβ-4 5 nM; p<0.05
Experimental: as §1, §2

D556 cells [4] = assay: Cell viability of D556 cells treated with chemotherapeutic agents with or without Tβ-4 (propidium iodide staining, flow cytometry; wst-1)
Experimental: as §3, §4

D556 cells [5] = assay: Apoptotic cell death of D556 cells after p53 and mTOR shRNA knockdown and drug treatment (trypan blue, annexin V/PI); conditions: p53 loss plus mTOR knockdown
Experimental: FIGS. 2A, 2B and 2C show the effect of silencing of p53 and mTOR in D556 cells. FIG. 2A and FIG. 2B are bar graphs showing the proportion of cells undergoing apoptotic cell death as a result of infection with p53 shRNA, control pLKO, mTOR and both p53 and mTOR lentivirus in D556 cells treated for 18 hrs with DMSO, VMY (30 uM) or doxorubicin (1 uM) as assessed using Trypan blue (FIG. 2A) and annexin V and propidium iodide (PI) staining (FIG. 2B) and measured by flow cytometry. Data are shown as percent change in staining versus pLKO-control infected cells.
The proportion of cells undergoing apoptotic cell death as a result of infection with p53 shRNA, control pLKO, mTOR and both p53 and mTOR lentivirus in D556 cells treated for 18 hrs with DMSO, VMY (30 uM) or doxorubicin (1 uM) was assessed using trypan blue (FIG. 2A) and annexin V and propidium iodide (PI) staining (FIG. 2B) and measured by flow cytometry. Data were determined as the percent change in staining versus pLKO-control infected cells.

[6] = with doxorubicin, vincristine, VMY-1-103

In the case of `CO[C@H]1C[C@@H]2CC[C@@H](C)[C@@](O)(O2)C(=O)C(=O)N2CCCC[C@H]2C(=O)O[C@H]([C@H](C)C[C@@H]2CC[C@@H](OCCO)[C@H](OC)C2)CC(=O)[C@H](C)/C=C(\C)[C@@H](O)[C@@H](OC)C(=O)[C@H](C)C[C@H](C)/C=C/C=C/C=C/1C` [Rad001/Everolimus, Everolimus], the “effect on chemosensitivity induced by p110 overexpression” value (p110) is reported as “reversed the chemosensitivity induced by p110”.

For `CC(C)[C@H](CO)Nc1nc(Nc2ccc(C(=O)NCCNS(=O)(=O)c3cccc4c(N(C)C)cccc34)c(Cl)c2)c2ncn(C(C)C)c2n1` [VMP], the “pmTOR level in cells infected with p53 shRNA vs control pLKO lentivirus” value (pmTOR in D556 cells) was “induction of pmTOR”.

With `N.N.[Cl][Pt][Cl]` [cisplatin] the “cell survival of p53 shRNA infected D556 cells vs control pLKO lentivirus” value (“cell survival … vs control pLKO lentivirus” below) (D556 cells [1]) was “lower percentage of cell survival”.

For “Tβ-4: multifunctional regenerative peptide, sequence MSDKPDMAEIEKFDKSKLKKTETQEKNPLPSKETIEQEKQAGES (SEQ ID NO:1); PI3K activator; commercially available as RGN-352 (MSDKPDMAEIEKFDKSKLKKTETQEKNPLPSKETIEQEKQAGES; listed as Homo sapiens)”, the “protein induction by Western blot” value [2] was “induces Akt, PP2A (α and c subunit), PARP and RIP1”, the “Tβ-4 sensitivity of cell line” value (D283 cells; D286 cells) was “insensitive” and the “protection of D283 (p53 low) cells from chemotherapeutic agents” value (D283 cells; [6]) was “protects D283 (p53 low) cells from the same drugs”. For the same compound, the “sensitivity of D556 cells to cisplatin in presence vs absence of Tβ-4” value (D556 cells [3]) was “significantly more sensitivity”, the “sensitivity of D556 cells to vincristine in presence vs absence of Tβ-4” value (D556 cells [3]) was “significantly more sensitivity” and the “Tβ-4 sensitivity of cell line” value (D556 cells [4]; D556 cells) was “sensitive”. The “sensitization of MB cells with high p53 levels to chemotherapeutic agents” value (D556 cells [4]; [6]) was “sensitizes MB cells with high p53 levels to chemotherapeutic agents”.

`COc1cccc2c1C(=O)c1c(O)c3c(c(O)c1C2=O)C[C@@](O)(C(=O)CO)C[C@@H]3O[C@H]1C[C@H](N)[C@H](O)[C@H](C)O1` [doxorubicin] was tested, and the “chemoresistance of p53-suppressed D556 cells after shRNA knockdown of mTOR” value (D556 cells [5]) was “restoring chemoresistance”, the “pmTOR level in cells infected with p53 shRNA vs control pLKO lentivirus” value (pmTOR in D556 cells) was “induction of pmTOR” and the “cell survival … vs control pLKO lentivirus” value (D556 cells [1]) was “lower percentage of cell survival”.

In the case of `CC[C@]1(O)C[C@H]2CN(CCc3c([nH]c4ccccc34)[C@@](C(=O)OC)(c3cc4c(cc3OC)N(C=O)[C@H]3[C@@](O)(C(=O)OC)[C@H](OC(C)=O)[C@]5(CC)C=CCN6CC[C@]43[C@@H]65)C2)C1` [vincristine], the “chemoresistance of p53-suppressed D556 cells after shRNA knockdown of mTOR” value (D556 cells [5]) is reported as “restoring chemoresistance” and the “cell survival … vs control pLKO lentivirus” value (D556 cells [1]) is reported as “lower percentage of cell survival”.
